# Measured values from ChEMBL document CHEMBL4270672, “Synthesis and Biological Evaluation of Fused Tricyclic Heterocycle Piperazine (Piperidine) Derivatives As Potential Multireceptor Atypical Antipsychotics” (J Med Chem, 2018).
# Activity calls are given as the source filed them. No cut-off for these calls is given here.
# Assays:
# [1] = Half life in Sprague-Dawley rat at 10 mg/kg, po by LC-MS/MS analysis; type: ADME, organism-based; conditions: in vivo
# [2] = Acute toxicity in po dosed Kunming mouse assessed as mortality measured after 24 hrs post dose; type: organism-based; conditions: in vivo
# [3] = Therapeutic index, ratio of ED50 for catalepsy in Kunming mouse to ED50 for MK-801-induced hyperactivity in Kunming mouse; type: toxicity, organism-based; conditions: in vivo, read-out: Ratio ED50
# [4] = AUC (0 to t) in Sprague-Dawley rat at 10 mg/kg, po by LC-MS/MS analysis; type: ADME, organism-based; conditions: in vivo
# Rattus norvegicus = test: Cognitive enhancing effect in Sprague-Dawley rat assessed as increase in total exploration time for novel objects in retention trial at 0.03 mg/kg, po administered 1 hr prior to acquisition trial measured 24 hrs post acquisition trial for 5 mins by novel object recognition test; type: functional, organism-based
# [5] = target: 5-hydroxytryptamine receptor 7 (Rattus norvegicus, UniProt P32305); test: Displacement of [3H]-5-CT from 5-HT7 receptor in rat cerebral cortex homogenates after 30 mins by liquid scintillation counting
# [6] = target: Adrenergic receptor alpha-2 (Rattus norvegicus, UniProt P22086+P19328+P22909); test: Displacement of [3H]-rauwolscine from adrenergic alpha2 receptor in rat cerebral cotex homogenates after 60 mins by liquid scintillation counting
# [7] = target: Sigma non-opioid intracellular receptor 1 (Cavia porcellus, UniProt Q60492); test: Displacement of [3H]-(+)-pentazocine from sigma1 receptor in guinea pig brain membranes after 180 mins by liquid scintillation counting; type: cell membranes, Membrane
# D(3) dopamine receptor = D(3) dopamine receptor (Rattus norvegicus, UniProt P19020)
# Chain of D(3) dopamine receptor (P19020 whole entry): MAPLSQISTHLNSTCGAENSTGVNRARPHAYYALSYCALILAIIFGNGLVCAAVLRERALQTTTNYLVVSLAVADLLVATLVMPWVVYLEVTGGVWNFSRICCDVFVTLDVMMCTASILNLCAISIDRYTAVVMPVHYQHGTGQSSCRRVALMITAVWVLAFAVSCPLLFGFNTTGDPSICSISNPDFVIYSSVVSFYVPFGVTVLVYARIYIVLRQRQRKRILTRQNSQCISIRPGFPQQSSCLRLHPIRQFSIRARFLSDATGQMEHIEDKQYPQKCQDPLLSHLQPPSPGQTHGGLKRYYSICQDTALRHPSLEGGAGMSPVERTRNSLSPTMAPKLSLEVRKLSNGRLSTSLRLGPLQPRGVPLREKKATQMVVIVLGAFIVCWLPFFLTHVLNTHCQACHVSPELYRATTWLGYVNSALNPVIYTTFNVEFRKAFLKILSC
# Chain of 5-hydroxytryptamine receptor 7 (P32305 whole entry): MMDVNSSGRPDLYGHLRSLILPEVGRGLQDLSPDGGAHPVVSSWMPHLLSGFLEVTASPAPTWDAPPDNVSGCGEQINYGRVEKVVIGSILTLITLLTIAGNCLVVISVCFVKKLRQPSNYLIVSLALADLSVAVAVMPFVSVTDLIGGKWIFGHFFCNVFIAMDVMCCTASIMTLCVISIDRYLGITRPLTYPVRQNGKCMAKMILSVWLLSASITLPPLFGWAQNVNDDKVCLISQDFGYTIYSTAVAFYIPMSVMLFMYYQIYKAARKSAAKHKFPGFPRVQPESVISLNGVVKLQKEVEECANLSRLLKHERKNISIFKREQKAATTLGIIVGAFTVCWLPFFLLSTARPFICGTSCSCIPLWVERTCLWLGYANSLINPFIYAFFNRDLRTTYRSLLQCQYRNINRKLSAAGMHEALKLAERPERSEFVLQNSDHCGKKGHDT
# Chain of Sigma non-opioid intracellular receptor 1 (Q60492 whole entry): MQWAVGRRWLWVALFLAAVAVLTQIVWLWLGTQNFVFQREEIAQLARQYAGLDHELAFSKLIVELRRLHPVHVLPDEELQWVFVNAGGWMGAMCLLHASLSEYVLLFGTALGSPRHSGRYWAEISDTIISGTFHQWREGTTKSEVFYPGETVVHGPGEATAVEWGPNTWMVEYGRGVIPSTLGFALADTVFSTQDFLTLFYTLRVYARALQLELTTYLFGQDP
compound,measurement,setting,value
O=C(CCCCN1CCC(c2noc3cc(F)ccc23)CC1)c1cc2c3c(c1)CCN3C(=O)CC2,half-life,[1],2.02 h
same,LD50 at 24 h,[2],> 2000 mg/kg
same,selectivity ratio,[3],302
same,AUC(0-t),[4],18500 ng·h/mL
same,Activity,Rattus norvegicus,inactive
same,Ki,[5],226 nM
same,Ki,[6],> 1000 nM
same,Ki,[7],> 1000 nM
same,Ki,D(3) dopamine receptor,1.66 nM
